Data taken from patent EP0425840A2, “Use of methenamine in the treatment of viral diseases and malign neoplasies” (Jaeger, Karl-Heinz, Dr. med., priority 1989, dated 1991).
Read-outs that look alike come from different tables or passages of the source.

Key:
[1] = tested on: L 5178 Y Maus-Lyphom Zellen; test: Nucleus size after cell lysis and propidium iodide staining (impulse cytophotometer); assay type: cell-based
From the text: (§1) HMT wurde zu den Kulturen in verschiedenen Konzentrationen während einer Zeitspanne von 24 Std. zugegeben. Die Populationen und das Zellvolumen wurden mit einem Zytokombgerät (System Michaelis, Mainz) entsprechend dem Coulter Counter-Prinzip bestimmt. Nach der Zellolyse mit 35 mmol/l Natriumzitrat und 0,5% Triton X 100 (Herstellerin Sigma Chemie, München), RNAse Behandlung und […] mit Propidiumjodid wurde die Kerngröße mit Hilfe eines Impulszytofotometers (FACS analizer) Firma Becton and Dickinson) gemessen.
Die Zellkulturen wurden wie unter Beispiel 1 beschrieben behandelt. Bei der Bewertung der Nucleusgröße wurde als Kontrolle die Verteilung der Kerngröße bei unbehandelten Zellen zugrunde gelegt.

[2] = tested on: DNA-Polymerasen; test: Activity of DNA polymerases in the cell nucleus; assay type: cell-based; conditions: no method or concentration given
[3] = tested on: reversen Transkriptase; test: Activity of reverse transcriptase in the cell nucleus; assay type: cell-based; conditions: no method or concentration given
[4] = tested on: L 5178 Y Maus-Lyphom Zellen; test: Change of cell volume in L 5178 Y cell culture (Coulter counter principle); assay type: cell-based
From the text: as §1, with “Die L 5178 Y Maus-Lyphom Zellen wurden in einem MEM-Spinner Medium mit 10 mmol/l HEPES Puffer, 10% fötalem Kalbserum und 100.000 Einheiten/l Penicillin/Steptomycin (Herstellerin Biocrom, Berlin) kultiviert. Bei Kultivierungsstart lagen 100.000 Zellen/ml Kulturmedium vor, wobei sich 60% der Zellen in der S-Phase befanden. HMT” for “HMT”

[5] = tested on: L 5178 Y Maus-Lyphom Zellen; test: Inhibition of cell growth in L 5178 Y cell culture (Coulter counter principle); assay type: cell-based
From the text: as §1, with “Die L 5178 Y Maus-Lyphom Zellen wurden in einem MEM-Spinner Medium mit 10 mmol/l HEPES Puffer, 10% fötalem Kalbserum und 100.000 Einheiten/l Penicillin/Steptomycin (Herstellerin Biocrom, Berlin) kultiviert. Bei Kultivierungsstart lagen 100.000 Zellen/ml Kulturmedium vor, wobei sich 60% der Zellen in der S-Phase befanden. HMT” for “HMT”

[6] = cited from earlier work

In the case of `N.N.[Cl][Pt][Cl]` [Cisplatin], the “Anzahl der Kerne mit reduzierter Nucleusgröße (%)” value ([1]; Cisplatin 0,5 x 10⁻⁵ g/ml Kulturvolumen) is reported as 43,51±5,62%, the “Anzahl der Kerne mit reduzierter Nucleusgröße (%)” value ([1]; Cisplatin 0,5 x 10⁻⁶ g/ml Kulturvolumen) is reported as 6,97±2,81% and the “Anzahl der Kerne mit reduzierter Nucleusgröße (%)” value ([1]; Cisplatin 1,0 x 10⁻⁶ g/ml Kulturvolumen) is reported as 9,95±3,13%. The “Anzahl der Kerne mit reduzierter Nucleusgröße (%)” value ([1]; Cisplatin 1,0 x 10⁻⁷ g/ml Kulturvolumen) was 4,07±2,24% and the “Anzahl der Kerne mit reduzierter Nucleusgröße (%)” value ([1]; Cisplatin 2,0 x 10⁻⁶ g/ml Kulturvolumen) was 18,62±4,08%.
In the case of `C1N2CN3CN1CN(C2)C3` [HMT, Methenamine], the “Aktivitäten der DNA-Polymerasen im Zellkern” value [2] is reported as “beeinträchtigt”, the “Aktivitäten der reversen Transkriptase im Zellkern” value [3] is reported as “beeinträchtigt” and the “Zellvolumen (µm³)” value ([4]; 0,1 mg HMT/ml Kulturvolumen, Zellfragmente, Mittelwert) is reported as 339,06 µm³. The “Zellvolumen (µm³)” value ([4]; 0,2 mg HMT/ml Kulturvolumen, Zellfragmente, Mittelwert) was 323,75 µm³, the “Zellvolumen (µm³)” value ([4]; 1 x 10⁻² mg HMT/ml Kulturvolumen, Kontrolle 1470,66±390,71) was 1540,82±401,32 µm³ and the “Zellvolumen (µm³)” value ([4]; 1 x 10⁻³ mg HMT/ml Kulturvolumen, Kontrolle 1470,66±390,71) was 1422,27±398,09 µm³. The “Zellvolumen (µm³)” value ([4]; 2 x 10⁻² mg HMT/ml Kulturvolumen, Kontrolle 1470,66±390,71) was 1718,16±487,10 µm³, the “Zellvolumen (µm³)” value ([4]; 2 x 10⁻³ mg HMT/ml Kulturvolumen, Kontrolle 1470,66±390,71) was 1479,35±387,79 µm³ and the “Zellvolumen (µm³)” value ([4]; 2 x 10⁻¹² mg HMT/ml Kulturvolumen, Kontrolle 1470,66±390,71) was 1411,23±395,92 µm³. The “Zellvolumen (µm³)” value ([4]; 2 x 10⁻¹¹ mg HMT/ml Kulturvolumen, Kontrolle 1470,66±390,71) was 1484,77±412,43 µm³, the “Zellvolumen (µm³)” value ([4]; 2 x 10⁻⁴ mg HMT/ml Kulturvolumen, Kontrolle 1470,66±390,71) was 1365,68±371,21 µm³ and the “Zellvolumen (µm³)” value ([4]; 2 x 10⁻⁵ mg HMT/ml Kulturvolumen, Kontrolle 1470,66±390,71) was 1289,92±350,94 µm³. For the same compound, the “Zellvolumen (µm³)” value ([4]; 2 x 10⁻⁶ mg HMT/ml Kulturvolumen, Kontrolle 1470,66±390,71) was 1295,17±379,65 µm³, the “Zellvolumen (µm³)” value ([4]; 2 x 10⁻⁷ mg HMT/ml Kulturvolumen, Kontrolle 1470,66±390,71) was 1279,94±388,43 µm³ and the “Zellvolumen (µm³)” value ([4]; 2 x 10⁻⁸ mg HMT/ml Kulturvolumen, Kontrolle 1470,66±390,71) was 1291,81±410,11 µm³. The “Zellvolumen (µm³)” value ([4]; 2 x 10⁻⁹ mg HMT/ml Kulturvolumen, Kontrolle 1470,66±390,71) was 1292,70±398,55 µm³, the “Zellvolumen (µm³)” value ([4]; 5 x 10⁻² mg HMT/ml Kulturvolumen, Kontrolle 1470,66±390,71) was 1736,76±438,98 µm³ and the Zellvolumen ([4]; between 10⁻⁴ - 10⁻¹² mg/ml Kulturvolumen) was “korrespondiert das Zellvolumen mit dem Zellvolumen der Kontrollen”. For the same compound, the activity at 100 µg/mL ([5]; Mus musculus, L5178Y, 24 h, 0,1 mg HMT/ml Kulturvolumen, 24 Std., Kontrolle = 100, read-out: Zellwachstum (%)) was 8%, the activity at 20 µg/mL ([5]; Mus musculus, L5178Y, 24 h, 0,02 mg HMT/ml Kulturvolumen, 24 Std., Kontrolle = 100, read-out: Zellwachstum (%)) was 61% and the activity at 200 µg/mL ([5]; Mus musculus, L5178Y, 24 h, 0,2 mg HMT/ml Kulturvolumen, 24 Std., Kontrolle = 100, read-out: Zellwachstum (%)) was 6%. The activity at 50 µg/mL ([5]; Mus musculus, L5178Y, 24 h, 0,05 mg HMT/ml Kulturvolumen, 24 Std., Kontrolle = 100, read-out: Zellwachstum (%)) was 35%, the Zellwachstum ([5]; from a concentration of 1 x 10⁻³ mg/ml HMT downwards) was “nicht mehr statistisch signifikant beeinflußt” and the “dissoziiert in Formaldehyd und Ammoniumionen” value ([6]; pH 5) was 20%. For the same compound, the “dissoziiert in Formaldehyd und Ammoniumionen” value ([6]; pH 6) was 6%, the “Anzahl der Kerne mit reduzierter Nucleusgröße (%)” value ([1]; 0,1 mg HMT/ml Kulturvolumen, kernfragmente) was 79,9 (kernfragmente) % and the “Anzahl der Kerne mit reduzierter Nucleusgröße (%)” value ([1]; 0,02 mg HMT/ml Kulturvolumen, Kernfragmente) was 1,0 (Kernfragmente) %. For the same compound, the “Anzahl der Kerne mit reduzierter Nucleusgröße (%)” value ([1]; 0,2 mg HMT/ml Kulturvolumen, Kernfragmente) was 81,3 (Kernfragmente) %, the “Anzahl der Kerne mit reduzierter Nucleusgröße (%)” value ([1]; 0,05 mg HMT/ml Kulturvolumen, Kernfragmente) was 25,1 (Kernfragmente) % and the “Anzahl der Kerne mit reduzierter Nucleusgröße (%)” value ([1]; 2 x 10⁻² mg HMT/ml Kulturvolumen) was 6,05+2,07%. For the same compound, the “Anzahl der Kerne mit reduzierter Nucleusgröße (%)” value ([1]; 2 x 10⁻³ mg HMT/ml Kulturvolumen) was 19,62±3,89%, the “Anzahl der Kerne mit reduzierter Nucleusgröße (%)” value ([1]; 2 x 10⁻¹² mg HMT/ml Kulturvolumen) was 25,77±4,29% and the “Anzahl der Kerne mit reduzierter Nucleusgröße (%)” value ([1]; 2 x 10⁻¹¹ mg HMT/ml Kulturvolumen) was 27,17±4,13%. For the same compound, the “Anzahl der Kerne mit reduzierter Nucleusgröße (%)” value ([1]; 2 x 10⁻⁴ mg HMT/ml Kulturvolumen) was 13,41±3,71%, the “Anzahl der Kerne mit reduzierter Nucleusgröße (%)” value ([1]; 2 x 10⁻⁵ mg HMT/ml Kulturvolumen) was 11,14±3,60% and the “Anzahl der Kerne mit reduzierter Nucleusgröße (%)” value ([1]; 2 x 10⁻⁶ mg HMT/ml Kulturvolumen) was 4,50±2,92%. For the same compound, the “Anzahl der Kerne mit reduzierter Nucleusgröße (%)” value ([1]; 2 x 10⁻⁷ mg HMT/ml Kulturvolumen) was 1,11±0,58%, the “Anzahl der Kerne mit reduzierter Nucleusgröße (%)” value ([1]; 2 x 10⁻⁸ mg HMT/ml Kulturvolumen) was 20,86±4,07% and the “Anzahl der Kerne mit reduzierter Nucleusgröße (%)” value ([1]; 5 x 10⁻² mg HMT/ml Kulturvolumen) was 4,87±91,93%. For the same compound, the “Kerne größenreduziert im Vergleich zu den Kontrollen” value ([1]; range of normal cell volume, 10⁻⁴- 10⁻¹² mg HMT/ml Kulturvolumen) was 25%.
